Test results: patent publication US20040006236A1, “Diaminopropionic acid derivatives” (priority 1999, published 2004)
Structures can show the parent of a compound that is named as a salt. Where two headings read alike, the source gives them in different places.

Assays:
[1] = system: T lymphocyte proliferation (C57BI/6 spleen cells with irradiated BALB/c spleen cells); experiment: Mixed lymphocyte reaction (MLR), one-way; type: cell-based, mice; details: read-out: MLR IC50
Procedure, shortened: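 Irradiated BALB/c spleen cells mixed with C57BI/6 spleen cells in RPMI1640/10% heat-inactivated FBS/2-mercaptoethanol, with serial antagonist dilutions; 3 days at 5% CO2. Tritiated thymidine (0.5 μCi/well) added on day 3; incorporation counted by liquid scintillation after a further 6 h.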

[2] = biological target: T1, LFA-1 binding to immobilized ICAM-1 (Homo sapiens, UniProt P05107+P20701); experiment: LFA-1/ICAM-1 protein-protein assay (solid-phase ELISA); details: read-out: LFA-1/ICAM-1 Protein-Protein Assay IC50
T1 construct: made in house; host or cells: transfected 293 cells (LFA-1)
Procedure, shortened: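 Human 5dICAM-Ig (ICAM-1 extracellular domain–IgG Fc) coated on plates; membrane-bound LFA-1 from transfected 293 cells (280 ng/mL) added with compound in Mn2+-containing HEPES buffer pH 7.2, 2 h at 37° C. Bound LFA-1 detected via anti-β2 antibody and HRP/TMB at 450 nm; IC50s determined.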

T1 sequence (P20701 26-1170): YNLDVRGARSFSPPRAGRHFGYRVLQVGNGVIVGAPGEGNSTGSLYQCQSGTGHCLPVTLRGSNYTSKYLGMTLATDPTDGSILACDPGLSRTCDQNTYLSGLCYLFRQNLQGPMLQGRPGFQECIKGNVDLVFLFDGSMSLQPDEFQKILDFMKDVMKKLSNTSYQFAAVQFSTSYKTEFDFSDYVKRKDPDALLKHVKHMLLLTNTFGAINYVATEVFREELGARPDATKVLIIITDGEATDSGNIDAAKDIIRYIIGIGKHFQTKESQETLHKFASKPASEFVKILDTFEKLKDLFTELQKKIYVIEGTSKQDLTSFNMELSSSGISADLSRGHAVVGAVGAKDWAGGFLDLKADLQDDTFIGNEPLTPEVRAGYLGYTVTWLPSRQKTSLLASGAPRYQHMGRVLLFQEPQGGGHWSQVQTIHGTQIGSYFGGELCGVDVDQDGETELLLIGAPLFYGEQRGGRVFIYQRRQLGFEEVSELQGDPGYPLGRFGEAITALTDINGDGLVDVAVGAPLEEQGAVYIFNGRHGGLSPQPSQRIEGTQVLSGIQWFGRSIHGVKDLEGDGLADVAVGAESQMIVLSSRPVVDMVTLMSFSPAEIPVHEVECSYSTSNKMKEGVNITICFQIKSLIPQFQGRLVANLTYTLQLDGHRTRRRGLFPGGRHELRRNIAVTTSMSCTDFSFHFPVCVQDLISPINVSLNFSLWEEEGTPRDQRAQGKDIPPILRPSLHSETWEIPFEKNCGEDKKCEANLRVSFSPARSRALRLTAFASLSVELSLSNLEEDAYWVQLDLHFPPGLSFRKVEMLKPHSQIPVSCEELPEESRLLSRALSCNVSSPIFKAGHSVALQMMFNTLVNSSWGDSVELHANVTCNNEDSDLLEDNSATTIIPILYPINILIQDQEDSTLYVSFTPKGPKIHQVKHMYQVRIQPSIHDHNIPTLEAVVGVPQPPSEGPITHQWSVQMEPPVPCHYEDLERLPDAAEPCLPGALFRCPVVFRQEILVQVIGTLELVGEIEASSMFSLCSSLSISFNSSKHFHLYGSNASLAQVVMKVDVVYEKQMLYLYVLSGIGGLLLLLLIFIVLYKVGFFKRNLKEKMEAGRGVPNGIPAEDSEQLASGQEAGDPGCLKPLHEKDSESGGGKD
T1 sequence (P05107 23-769): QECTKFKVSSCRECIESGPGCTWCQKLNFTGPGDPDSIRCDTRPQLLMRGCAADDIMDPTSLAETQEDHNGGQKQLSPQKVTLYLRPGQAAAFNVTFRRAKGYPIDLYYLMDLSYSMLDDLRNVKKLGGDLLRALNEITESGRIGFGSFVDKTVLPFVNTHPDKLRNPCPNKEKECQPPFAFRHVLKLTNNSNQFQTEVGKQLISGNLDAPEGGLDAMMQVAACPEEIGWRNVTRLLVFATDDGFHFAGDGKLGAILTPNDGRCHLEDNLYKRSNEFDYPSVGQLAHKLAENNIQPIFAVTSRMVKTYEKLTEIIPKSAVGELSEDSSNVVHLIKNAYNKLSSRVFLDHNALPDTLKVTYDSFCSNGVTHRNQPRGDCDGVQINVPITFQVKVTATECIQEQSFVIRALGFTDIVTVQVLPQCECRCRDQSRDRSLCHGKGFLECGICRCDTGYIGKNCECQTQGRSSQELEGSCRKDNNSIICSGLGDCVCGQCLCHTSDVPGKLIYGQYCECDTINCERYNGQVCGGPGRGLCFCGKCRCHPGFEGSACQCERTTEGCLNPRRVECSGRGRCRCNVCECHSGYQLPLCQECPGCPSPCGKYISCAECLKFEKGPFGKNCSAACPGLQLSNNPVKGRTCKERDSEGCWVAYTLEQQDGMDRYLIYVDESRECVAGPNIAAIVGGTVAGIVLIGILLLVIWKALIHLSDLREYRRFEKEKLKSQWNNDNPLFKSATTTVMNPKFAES

| Compound | IC50 ([1]; Mus musculus, T-lymphocyte) [nM] | IC50 [2] [nM] | IC50 ([1]; sodium salt) [nM] |
| --- | --- | --- | --- |
| Nc1cccn(CC(=O)NC[C@H](NC(=O)c2ccc(C(=O)NCc3cccc(O)c3)cc2Cl)C(=O)O)c1=O [Example 266] | 3050 | 4.6 |  |
| O=C(O)c1cccc(C(=O)NC[C@H](NC(=O)c2ccc(C(=O)NCc3cccc(O)c3)cc2Cl)C(=O)O)c1 [Example 297] | 1650 | 0.8 |  |
| O=C(O)CCCC(=O)NC[C@H](NC(=O)c1ccc(C(=O)NCc2cccc(O)c2)cc1Cl)C(=O)O [Example 298] | 1800 | 4.8 |  |
| O=C(NCc1cccc(O)c1)c1ccc(C(=O)N[C@@H](CNC(=O)c2ccccc2)C(=O)O)c(Cl)c1 [Example 302, 3-benzoylamino-N-[2-chloro-4-[[[(3-hydroxyphenyl)methyl]amino]carbonyl]benzoyl]-L-alanine] | 310 | 0.9 |  |
| O=C(NCc1cccc(O)c1)c1ccc(C(=O)N[C@@H](CNC(=O)c2cccs2)C(=O)O)c(Cl)c1 [Example 303, N-[2-chloro-4-[[[(3-hydroxyphenyl)methyl]amino]carbonyl]benzoyl]-3-(thiophene-2-carbonyl)amino-L-alanine] | 70 | 0.5 |  |
| O=C(NCc1cccc(O)c1)c1ccc(C(=O)N[C@@H](CNC(=O)c2cccs2)C(=O)O)c(Cl)c1 [Example 305, N-[2-chloro-4-[[[(3-hydroxyphenyl)methyl]amino]carbonyl]benzoyl]-3-(thiophene-2-carbonyl)amino-L-alanine, sodium salt] |  | 1 | 100 |
| O=C(NCc1cccc2[nH]ccc12)c1ccc(C(=O)N[C@@H](CNC(=O)c2ccccc2)C(=O)O)c(Cl)c1 [Example 314, 3-(benzoylamino)-N-[2-chloro-4-[[(1H-indol-4-ylmethyl)amino]carbonyl]benzoyl]-L-alanine] | 625 | 1.9 |  |
| O=C(NCc1cccc2[nH]ccc12)c1ccc(C(=O)N[C@@H](CNC(=O)c2ccoc2)C(=O)O)c(Cl)c1 [Example 316] | 425 | 1.3 |  |
| Cc1ccc(C(=O)NC[C@H](NC(=O)c2ccc(C(=O)NCc3cccc4[nH]ccc34)cc2Cl)C(=O)O)s1 [Example 317] | 1750 | 3.5 |  |
| O=C(NCc1cccc2c1CCN2)c1ccc(C(=O)N[C@@H](CNC(=O)c2cccs2)C(=O)O)c(Cl)c1 [Example 318, 3-(thiophene-2-carbonyl)amino-N-[2-chloro-4-[[(2,3-dihydro-1H-indol-4-ylmethyl)amino]carbonyl]benzoyl]-L-alanine] | 1850 | 1.9 |  |
| O=C(CCc1cccc(O)c1)c1ccc(C(=O)N[C@@H](CNC(=O)c2cccs2)C(=O)O)c(Cl)c1 [Example 319, N-[2-chloro-4-[1-oxo-3-(3-hydroxyphenyl)propyl]benzoyl]-3-(thiophene-2-carbonyl)amino-L-alanine] | 665 | 1.4 |  |
| O=C(NC[C@H](NC(=O)c1ccc(-n2nnnc2NCc2cccc(O)c2)cc1Cl)C(=O)O)c1cccs1 [Example 321] | 775 | 2.6 |  |
| O=C(NCc1cccc2[nH]cnc12)c1ccc(C(=O)N[C@@H](CNC(=O)c2cccs2)C(=O)O)c(Cl)c1 [Example 322] | 3600 | 8.5 |  |
| Cc1cc(C(=O)NCc2cccc(O)c2)ccc1C(=O)N[C@@H](CNC(=O)c1cccs1)C(=O)O [Example 323] | 325 | 1.3 |  |
| O=C(NCc1cccc2[nH]ncc12)c1ccc(C(=O)N[C@@H](CNC(=O)c2cccs2)C(=O)O)c(Cl)c1 [Example 327, N-[2-chloro-4-[[[(1H-indazol-4-yl)methyl]amino]carbonyl]benzoyl]-3-(thiophene-2-carbonyl)amino-L-alanine] | 180 | 1.8 |  |
| O=C(NCc1cccc2[nH]ccc12)c1ccc(C(=O)N[C@@H](CNC(=O)c2cccs2)C(=O)O)c(Br)c1 [Example 329] | 420 | 2.7 |  |
| Cc1cc(C(=O)NCc2cccc(O)c2)cc(C)c1C(=O)N[C@@H](CNC(=O)c1cccs1)C(=O)O [Example 330] | 32 | 1.4 |  |
| C[C@@H](NC(=O)c1ccc(C(=O)N[C@@H](CNC(=O)c2cccs2)C(=O)O)c(Br)c1)c1cccc2ccccc12 [Example 332] | 1540 | 4.8 |  |
| Cc1cc(C(=O)N[C@H](C)c2cccc3ccccc23)cc(C)c1C(=O)N[C@@H](CNC(=O)c1cccs1)C(=O)O [Example 333] | 180 | 3.5 |  |
| Nc1cccc(CNC(=O)c2ccc(C(=O)N[C@@H](CNC(=O)c3cccs3)C(=O)O)c(Br)c2)c1 [Example 334, N-[4-[[[(3-aminophenyl)methyl]amino]carbonyl]-2-bromobenzoyl]-3-(thiophene-2-carbonyl)amino-L-alanine] | 495 | 3 |  |
| Cc1cc(C(=O)NCc2cccc(O)c2)cc(C)c1C(=O)N[C@@H](CNC(=O)c1ccsc1)C(=O)O [Example 336, N-[2,6-dimethyl-4-[[[(3-hydroxyphenyl)methyl]amino]carbonyl]benzoyl]-3-(thiophene-3-carbonyl)amino-L-alanine] | 33 | 2.1 |  |
| Cc1cc(C(=O)NCc2cccc(O)c2)cc(C)c1C(=O)N[C@@H](CNC(=O)c1cc(F)cc(F)c1)C(=O)O [Example 337, N-[2,6-dimethyl-4-[[[(3-hydroxyphenyl)methyl]amino]carbonyl]benzoyl]-3-(3,5-difluorobenzoylamino)-L-alanine] | 59 | 3.7 |  |
| Cc1cc(C(=O)NCc2cccc(O)c2)cc(Cl)c1C(=O)N[C@@H](CNC(=O)c1cccs1)C(=O)O [Example 338, N-[2-chloro-4-[[[(3-hydroxyphenyl)methyl]amino]carbonyl]-6-methylbenzoyl]-3-[(thiophene-2-carbonyl)amino]-L-alanine] | 21 | 1.5 |  |
| Cc1cc(C(=O)NCc2cccc(O)c2)cc(Cl)c1C(=O)N[C@@H](CNC(=O)c1ccsc1)C(=O)O [Example 339, N-[2-chloro-4-[[[(3-hydroxyphenyl)methyl]amino]carbonyl]-6-methylbenzoyl]-3-[(thiophene-3-carbonyl)amino]-L-alanine] | 29 | 1.7 |  |
| Cc1cc(C(=O)NCc2cccc(O)c2)cc(Cl)c1C(=O)N[C@@H](CNC(=O)c1cc(F)cc(F)c1)C(=O)O [Example 340, N-[2-chloro-4-[[[(3-hydroxyphenyl)methyl]amino]carbonyl]-6-methylbenzoyl]-3-[(3,5-difluorobenzoyl)amino]-L-alanine] | 36 | 0.3 |  |
| O=C(NCc1cccc(O)c1)c1cc(Cl)c(C(=O)N[C@@H](CNC(=O)c2cccs2)C(=O)O)c(Cl)c1 [Example 342, N-[2,6-dichloro-4-[[[(3-hydroxyphenyl)methyl]amino]carbonyl]benzoyl]-3-[(thiophene-2-carbonyl)amino]-L-alanine] | 27 | 1.6 |  |
| O=C(NCc1cccc(O)c1)c1cc(Cl)c(C(=O)N[C@@H](CNC(=O)c2ccsc2)C(=O)O)c(Cl)c1 [Example 343, N-[2,6-dichloro-4-[[[(3-hydroxyphenyl)methyl]amino]carbonyl]benzoyl]-3-[(thiophene-3-carbonyl)amino]-L-alanine] | 30 | 2.5 |  |
| O=C(NCc1cccc(O)c1)c1cc(Cl)c(C(=O)N[C@@H](CNC(=O)c2cc(F)cc(F)c2)C(=O)O)c(Cl)c1 [Example 344, N-[2,6-dichloro-4-[[[(3-hydroxyphenyl)methyl]amino]carbonyl]benzoyl]-3-[(3,5-difluorobenzoyl)amino]-L-alanine] | 34 | 0.3 |  |
| O=C(NCc1cccc(O)c1)c1cc(Cl)c(C(=O)N[C@@H](CNC(=O)c2cc(O)cc(O)c2)C(=O)O)c(Cl)c1 [Example 345, N-[2,6-dichloro-4-[[[(3-hydroxyphenyl)methyl]amino]carbonyl]benzoyl]-3-(3,5-dihydroxybenzoylamino)-L-alanine] | 2 | 0.2 |  |
